Reference: BigSolDB 2.1

O=P(c1ccccc1)(c1ccccc1)c1cc(O)ccc1O
Conditions	solubility (mole fraction)
in 2-ethoxyethanol, 299.43 K	0.0108
in 2-ethoxyethanol, 303.25 K	0.0113
in 2-ethoxyethanol, 308.24 K	0.0124
in 2-ethoxyethanol, 313.46 K	0.0137
in 2-ethoxyethanol, 318.15 K	0.0154
in 2-ethoxyethanol, 323.27 K	0.0168
in 2-ethoxyethanol, 328.26 K	0.018
in 2-ethoxyethanol, 333.45 K	0.0198
in 2-ethoxyethanol, 338.75 K	0.0223
in 2-ethoxyethanol, 343.15 K	0.0236
in 2-ethoxyethanol, 348.15 K	0.0252
in 2-ethoxyethanol, 353.14 K	0.0279
in 2-ethoxyethanol, 358.06 K	0.0295
in 2-ethoxyethanol, 363.15 K	0.0316
in 2-ethoxyethanol, 368.16 K	0.0348
in acetone, 299.45 K	0.00175
in acetone, 303.26 K	0.00188
in acetone, 308.24 K	0.00216
in acetone, 313.47 K	0.00236
in acetone, 318.13 K	0.00262
in acetone, 323.26 K	0.00296
in acetone, 328.25 K	0.00332
in ethanol, 293.95 K	0.00571
in ethanol, 298.26 K	0.00634
in ethanol, 303.44 K	0.00721
in ethanol, 308.26 K	0.00787
in ethanol, 313.45 K	0.00903
in ethanol, 318.47 K	0.00979
in ethanol, 323.35 K	0.0109
in ethanol, 328.43 K	0.0117
in ethanol, 333.35 K	0.0127
in methanol, 294.16 K	0.00625
in methanol, 298.35 K	0.00707
in methanol, 303.87 K	0.00814
in methanol, 308.85 K	0.00946
in methanol, 313.34 K	0.0108
in methanol, 318.15 K	0.0123
in methanol, 323.56 K	0.0138
in toluene, 293.96 K	0.00071
in toluene, 298.25 K	0.00075
in toluene, 303.47 K	0.00078
in toluene, 308.24 K	0.00082
in toluene, 313.45 K	0.00086
in toluene, 318.43 K	0.00089
in toluene, 323.38 K	0.00094
in toluene, 328.45 K	0.00099
in water, 297.16 K	0.00011
in water, 308.15 K	0.00012
in water, 313.34 K	0.00013
in water, 318.15 K	0.00014
in water, 323.47 K	0.00014
in water, 328.46 K	0.00015
in water, 333.25 K	0.00015
in water, 338.17 K	0.00016
in water, 343.25 K	0.00017
in water, 348.36 K	0.00017
in water, 353.14 K	0.00018
in water, 358.13 K	0.00018
in water, 363.27 K	0.00019
in water, 368.26 K	0.00019
